Test results: paper PMC9542104, “Druggability Evaluation of the Neuron Derived Orphan Receptor (NOR‐1) Reveals Inverse NOR‐1 Agonists” (Chemmedchem, 2022)
Where two headings read alike, the source gives them in different places.

Assays:
NOR‐1 = details: cited from earlier work
[1] = biological target: T1, Gal4‐NOR‐1 (human NOR‐1 LBD) (Homo sapiens, UniProt Q92570); test: Gal4 hybrid reporter gene assay for NOR‐1 activity in HEK293T cells; format: cell-based; details: for type of NOR‐1 modulation: Gal4‐NOR‐1; for IC50: read-out: IC50 (NOR‐1), inverse agonism; for remaining NOR‐1 activity: Gal4‐NOR‐1, remaining activity at maximum inverse agonist effect; for activity on NOR‐1 / NOR‐1 activity: Gal4‐NOR‐1, 100 μM
T1 construct: coding for the hinge region and LBD of the canonical isoform of NOR‐1; expressed in transfected cells; host or cells: HEK293T
T1 sequence (Q92570 394-623 limits assumed): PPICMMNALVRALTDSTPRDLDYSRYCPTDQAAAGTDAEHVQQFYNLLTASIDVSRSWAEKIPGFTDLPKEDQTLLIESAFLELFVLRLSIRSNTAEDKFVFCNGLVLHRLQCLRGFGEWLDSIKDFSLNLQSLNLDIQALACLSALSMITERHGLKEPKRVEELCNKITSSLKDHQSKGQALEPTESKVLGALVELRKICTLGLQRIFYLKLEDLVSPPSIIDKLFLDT
Protocol: The screening assay was based on the Gal4 hybrid system[13] and employed a chimeric receptor composed of the human NOR‐1 LBD and the Gal4 DNA binding domain from yeast. Firefly luciferase under the control of five tandem repeats of the Gal4 response element served as reporter gene and constitutively expressed renilla luciferase was used for normalization and toxicity monitoring. Control experiments were conducted with the ligand‐independent transcriptional inducer Gal4‐VP16[14, 15] (replacing Gal4‐NOR‐1) to exclude non‐specific effects.
Hybrid reporter gene assays. The reporter gene assay was performed as reported previously[25] in HEK293T cells in 96‐well format using pFR‐Luc (Stratagene, La Jolla, CA, USA; reporter), pRL‐SV40 (Promega, Madison, WI, USA; control) and the Gal4‐NOR‐1 fusion receptor plasmid pFA‐CMV‐hNOR‐1‐LBD coding for the hinge region and LBD of the canonical isoform of NOR‐1 or pECE‐SV40‐Gal4‐VP16[15] […] In the primary screening, the core set of the Prestwick Drug Fragments Library was tested at 100 μM in two biologically independent repeats. All other samples were tested in duplicates in at least three biologically independent repeats. Luminescence was measured with a Spark 10 M luminometer (Tecan Group AG, Mannedorf, Switzerland), firefly luciferase data were divided by Renilla luciferase data and multiplied by 1000 to obtain relative light units (RLU). Fold activation was obtained by dividing the mean RLU of a test compound at a respective concentration by the mean RLU of untreated control. Dose‐response curves were fitted with the equation “[Agonist]/[Inhibitor] vs. response (three parameters)” in GraphPad Prism (version 7.00, GraphPad Software, La Jolla, CA, USA).

Gal4‐VP16 = biological target: T2, Gal4‐VP16 (Saccharomyces cerevisiae, UniProt P04386); test: Gal4‐VP16 control reporter gene assay in HEK293T cells; format: cell-based; details: 100 μM
T2 construct: host or cells: HEK293T
T2 sequence (P04386 1-147, added parts left off): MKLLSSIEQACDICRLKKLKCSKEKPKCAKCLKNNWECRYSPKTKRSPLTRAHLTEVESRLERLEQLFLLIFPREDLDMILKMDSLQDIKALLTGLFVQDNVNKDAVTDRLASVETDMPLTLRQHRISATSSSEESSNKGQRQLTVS
Description: To rapidly probe druggability of NOR‐1 and identify potential ligand scaffolds, we have established a robust reporter gene assay to monitor NOR‐1 activity and screened a medium size fragment library for NOR‐1 modulation. The screening assay was based on the Gal4 hybrid system[13] and employed a chimeric receptor composed of the human NOR‐1 LBD and the Gal4 DNA binding domain from yeast. Firefly luciferase under the control of five tandem repeats of the Gal4 response element served as reporter gene and constitutively expressed renilla luciferase was used for normalization and toxicity monitoring. Control experiments were conducted with the ligand‐independent transcriptional inducer Gal4‐VP16[14, 15] (replacing Gal4‐NOR‐1) to exclude non‐specific effects. The commercially available fragment screening library (core set of the Prestwick drug fragments library) comprised 480 compounds with favorable fragment properties (Figure 1a) and offered high structural diversity as illustrated by low average pairwise Jaccard‐Tanimoto similarity computed on Morgan fingerprints[16] (median 0.13; Figure 1b) and by a total of 77 unique Murcko scaffolds.[17] […]
Hybrid reporter gene assays. […] Luminescence was measured with a Spark 10 M luminometer (Tecan Group AG, Mannedorf, Switzerland), firefly luciferase data were divided by Renilla luciferase data and multiplied by 1000 to obtain relative light units (RLU). […]

[2] = test system: MYC mRNA expression in HeLa cells; format: cell-based; details: 16 h, 1 at 100 and 300 μM, 19 at 10 and 30 μM, GAPDH as reference gene, n=4
Description: The following primers were used: GAPDH: fw: [NT].

[3] = biological target: T3, interaction of NOR‐1 with NCoR1 (Homo sapiens, UniProt Q92570); test: Reporter gene assay for NOR‐1 interaction with NCoR1 in HEK293T cells; format: cell-based; details: n=3, read-out: IC50, antagonism of NOR‐1 interaction with NCoR1
T3 construct: coding for the hinge region and LBD of the canonical isoform of NOR‐1; expressed in transfected cells; host or cells: HEK293T
T3 sequence (Q92570 394-623 limits assumed): T1 sequence (Q92570 394-623 limits assumed)
Protocol: (§1) Reporter gene assays for NOR‐1 interactions with NCoR1 and SMRT. The interaction of NOR‐1 with NCoR1 and SMRT was studied in reporter gene assays in HEK293T cells using pFR‐Luc, pRL‐SV40 and pFA‐CMV‐hNOR‐1‐LBD in combination with either pFTI‐CMV‐NCoR1 or pFTI‐CMV‐SMRT, which code for fusion proteins composed of the transcriptional inducer VP16 and fragments of the nuclear receptor co‐regulators NCoR1 or SMRT comprising one interaction motif.[29] […] After 24 h, the medium was changed to Opti‐MEM without supplements and the cells were transiently transfected with above‐described plasmids using Lipofectamine LTX reagent (Invitrogen). […] After 16 h incubation, cells were assayed for luciferase activity using the Dual‐Glo Luciferase Assay System (Promega) and luminescence was measured with a Spark 10 M luminometer (Tecan Group Ltd). Each sample was tested in duplicates in three independent experiments. Firefly luciferase data were divided by renilla luciferase data to obtain relative light units (RLU) and RLU of each test sample were normalized to the negative control (0.1 % DMSO).

[4] = biological target: T4, interaction of NOR‐1 with SMRT (Homo sapiens, UniProt Q92570); test: Reporter gene assay for NOR‐1 interaction with SMRT in HEK293T cells; format: cell-based; details: n=3, read-out: IC50, antagonism of NOR‐1 interaction with SMRT
T4 construct: coding for the hinge region and LBD of the canonical isoform of NOR‐1; expressed in transfected cells; host or cells: HEK293T
T4 sequence (Q92570 394-623 limits assumed): T1 sequence (Q92570 394-623 limits assumed)
Protocol: as §1

Sc1ncnc2nc[nH]c12 [6‐mercaptopurine]
binding to the NOR‐1 ligand binding domain (LBD) (NOR‐1): does not bind
effect on NOR‐1 activity (NOR‐1; requires the N‐terminal AF‐1 of NOR‐1): enhanced NOR‐1 activity

COC(=O)c1c[nH]c2ccccc12 [compound 1]
type of NOR‐1 modulation [1]: inverse agonist
IC50 ([1]; Gal4‐NOR‐1, HEK293T cells, n=4): 47 ± 8 µM
remaining NOR‐1 activity ([1]; n=4): 47±6%
effect on Gal4‐VP16 induced reporter activity (Gal4‐VP16): no suppression
effect on MYC expression [2]: induced MYC expression

CC(=O)N1CCN(c2ccc(O)cc2)CC1 [compound 2]
type of NOR‐1 modulation [1]: inverse agonist
IC50 ([1]; Gal4‐NOR‐1, HEK293T cells, n=4): 73 µM
remaining NOR‐1 activity ([1]; n=4): 64±7%
effect on Gal4‐VP16 induced reporter activity (Gal4‐VP16): no suppression

O=C(O)CCc1ccc(Cl)cc1 [compound 3]
type of NOR‐1 modulation [1]: agonist
EC50 ([1]; Gal4‐NOR‐1, HEK293T cells, n=4, read-out: EC50 (NOR‐1), agonism): 44 ± 6 µM
max. activation of NOR‐1 ([1]; Gal4‐NOR‐1, n=4): 132±4%
effect of added inverse agonist 1 on the EC50 value of 3 (competition experiment) ([1]; fixed concentration of 1 (100 μM), n=3): did not affect the EC50 value

Oc1ccc(N2CCNCC2)cc1 [compound 4]
activity on NOR‐1 [1]: inactive (100 μM)

CC(=O)N1CCN(c2ccccc2)CC1 [compound 5]
NOR‐1 activity ([1]; n=4): 93±1 % NOR‐1 activity (100 μM)

Clc1ccc(N2CCNCC2)cc1 [compound 6, 4‐chlorophenylpiperazine]
type of NOR‐1 modulation [1]: weak agonists
NOR‐1 activity ([1]; n=4): 120±6 % NOR‐1 activity (100 μM)

Nc1ccc(N2CCNCC2)cc1 [compound 8, 4‐aminophenylpiperazine]
type of NOR‐1 modulation [1]: weak agonists
NOR‐1 activity ([1]; n=4): 124±2 % NOR‐1 activity (100 μM)

COc1ccc(N2CCNCC2)cc1 [compound 9, 4‐Methoxyphenylpiperazine]
activity on NOR‐1 [1]: inactive (100 μM)

CN1CCN(c2ccc(N)cc2)CC1 [compound 10]
activity on NOR‐1 [1]: inactive (100 μM)

COC(=O)c1cn(-c2ccccc2)c2ccccc12 [compound 11]
activity on NOR‐1 [1]: inactive

COC(=O)c1c(Cl)[nH]c2ccccc12 [compound 12]
IC50 ([1]; Gal4‐NOR‐1, HEK293T cells, n=4): > 100 µM

COC(=O)c1c[nH]c2cccc(Cl)c12 [compound 13]
IC50 ([1]; Gal4‐NOR‐1, HEK293T cells, n=4): > 100 µM

COC(=O)c1c[nH]c2ccc(Cl)cc12 [compound 14]
IC50 ([1]; Gal4‐NOR‐1, HEK293T cells, n=4): 14 ± 2 µM
remaining NOR‐1 activity ([1]; n=4): 12±4%
improvement in inverse NOR‐1 agonist potency ([1]; versus lead 1): 3.5 fold

COC(=O)c1c[nH]c2cc(Cl)ccc12 [compound 15]
IC50 ([1]; Gal4‐NOR‐1, HEK293T cells, n=4): > 100 µM

COC(=O)c1c[nH]c2c(Cl)cccc12 [compound 16]
IC50 ([1]; Gal4‐NOR‐1, HEK293T cells, n=4): > 100 µM

COC(=O)c1c[nH]c2ccc(C)cc12 [compound 17]
IC50 ([1]; Gal4‐NOR‐1, HEK293T cells, n=4): 35 ± 8 µM
remaining NOR‐1 activity ([1]; n=4): 2±7%

COC(=O)c1c[nH]c2ccc(OC)cc12 [compound 18]
IC50 ([1]; Gal4‐NOR‐1, HEK293T cells, n=4): 43 ± 5 µM
remaining NOR‐1 activity ([1]; n=4): 13±4%

COC(=O)c1c[nH]c2ccc(Br)cc12 [compound 19, Methyl 5‐bromoindole‐3‐carboxylate]
IC50 ([1]; Gal4‐NOR‐1, HEK293T cells, n=4): 8 ± 1 µM
remaining NOR‐1 activity ([1]; n=4): 7±3%
IC50 [3]: 12 ± 3 µM
IC50 [4]: 9 ± 2 µM
effect on MYC expression [2]: induced MYC expression

COC(=O)c1c[nH]c2ccc(-c3ccccc3)cc12 [compound 20]
IC50 ([1]; Gal4‐NOR‐1, HEK293T cells, n=4): 4 ± 2 µM
remaining NOR‐1 activity ([1]; n=4): 49±5%

CCCCC[C@H](O)/C=C/[C@H]1C=CC(=O)[C@@H]1C/C=C\CCCC(=O)O [prostaglandin A2]
effect on NOR‐1 activity (NOR‐1; through direct interaction with its LBD): weakly activates NOR‐1
